Measurements from article PMC2692545 (Biochemical pharmacology, 2009).

Biological target: C1/C2 + Gsα (VC1:IIC2 plus Gsα-GTPγS) (Canis lupus familiaris; Rattus norvegicus; Bos taurus, UniProt P26769+P30803)
Assay: […]cAMP formation from [α-32P]ATP, stimulation of catalysis
Assay type: biochemical

Sequence of C1/C2 + Gsα (VC1:IIC2 plus Gsα-GTPγS) (P30803 442-656): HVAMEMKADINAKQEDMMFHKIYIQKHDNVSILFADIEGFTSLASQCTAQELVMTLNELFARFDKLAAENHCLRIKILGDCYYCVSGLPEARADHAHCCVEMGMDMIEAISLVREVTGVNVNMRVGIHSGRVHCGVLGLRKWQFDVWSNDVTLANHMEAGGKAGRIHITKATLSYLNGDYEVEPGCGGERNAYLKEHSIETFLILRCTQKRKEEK
Sequence of C1/C2 + Gsα (VC1:IIC2 plus Gsα-GTPγS) (P26769 870-1081): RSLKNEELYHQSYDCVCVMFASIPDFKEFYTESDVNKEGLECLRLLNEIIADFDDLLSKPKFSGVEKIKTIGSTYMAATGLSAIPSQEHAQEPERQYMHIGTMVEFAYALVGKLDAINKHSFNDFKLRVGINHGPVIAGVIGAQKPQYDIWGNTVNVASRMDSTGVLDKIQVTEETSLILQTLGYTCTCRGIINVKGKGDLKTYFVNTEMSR
Sequence of C1/C2 + Gsα (VC1:IIC2 plus Gsα-GTPγS) (P04896 2-394 partner): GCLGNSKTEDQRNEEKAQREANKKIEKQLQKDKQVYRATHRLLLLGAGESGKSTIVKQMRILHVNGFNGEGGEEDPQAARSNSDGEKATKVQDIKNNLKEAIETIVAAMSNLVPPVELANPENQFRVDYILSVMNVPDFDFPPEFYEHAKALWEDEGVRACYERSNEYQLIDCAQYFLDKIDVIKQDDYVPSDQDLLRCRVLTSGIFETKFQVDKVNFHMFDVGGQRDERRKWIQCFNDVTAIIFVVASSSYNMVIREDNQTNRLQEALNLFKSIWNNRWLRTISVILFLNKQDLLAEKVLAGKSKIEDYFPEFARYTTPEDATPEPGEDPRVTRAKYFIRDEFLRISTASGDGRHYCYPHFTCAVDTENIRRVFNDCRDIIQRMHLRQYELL

SMILES | EC50 [µM]
C=C[C@@]1(C)CC(=O)[C@]2(O)[C@@]3(C)[C@@H](O)CCC(C)(C)[C@@H]3[C@H](OC(C)=O)[C@H](O)[C@@]2(C)O1 [6A7DA-FS] | 2.6 ± 1
C=C[C@@]1(C)CC(=O)[C@H]2[C@](C)(O1)[C@@H](OC(C)=O)[C@@H](O)[C@H]1C(C)(C)CC[C@H](O)[C@@]12C [9d-FS] | 19.5 ± 0.7
C=C[C@@]1(C)CC(=O)[C@]2(O)[C@@]3(C)[C@@H](O)CCC(C)(C)[C@@H]3[C@H](O)[C@H](OC(=O)CCCN3CCN(C)CC3)[C@@]2(C)O1 [DMB-FS] | 27.6 ± 7
C=C[C@@]1(C)CC(=O)[C@]2(O)[C@@]3(C)[C@@H](O)CCC(C)(C)[C@@H]3[C@H](O)[C@H](OC(C)=O)[C@@]2(C)O1 [FS] | 7.4 ± 1.2
